Measured values as given in ChEMBL document CHEMBL1201862, “PubChem BioAssay data set” (2004).
One block for each molecule: values may come before it. Active and inactive are the calls of the source.

Key:
Assay type in all cases: functional
[1] = molecular target: T1, Tyrosine-protein phosphatase non-receptor type 22 (Homo sapiens, UniProt Q9Y2R2)
T1 sequence (Q9Y2R2 whole entry): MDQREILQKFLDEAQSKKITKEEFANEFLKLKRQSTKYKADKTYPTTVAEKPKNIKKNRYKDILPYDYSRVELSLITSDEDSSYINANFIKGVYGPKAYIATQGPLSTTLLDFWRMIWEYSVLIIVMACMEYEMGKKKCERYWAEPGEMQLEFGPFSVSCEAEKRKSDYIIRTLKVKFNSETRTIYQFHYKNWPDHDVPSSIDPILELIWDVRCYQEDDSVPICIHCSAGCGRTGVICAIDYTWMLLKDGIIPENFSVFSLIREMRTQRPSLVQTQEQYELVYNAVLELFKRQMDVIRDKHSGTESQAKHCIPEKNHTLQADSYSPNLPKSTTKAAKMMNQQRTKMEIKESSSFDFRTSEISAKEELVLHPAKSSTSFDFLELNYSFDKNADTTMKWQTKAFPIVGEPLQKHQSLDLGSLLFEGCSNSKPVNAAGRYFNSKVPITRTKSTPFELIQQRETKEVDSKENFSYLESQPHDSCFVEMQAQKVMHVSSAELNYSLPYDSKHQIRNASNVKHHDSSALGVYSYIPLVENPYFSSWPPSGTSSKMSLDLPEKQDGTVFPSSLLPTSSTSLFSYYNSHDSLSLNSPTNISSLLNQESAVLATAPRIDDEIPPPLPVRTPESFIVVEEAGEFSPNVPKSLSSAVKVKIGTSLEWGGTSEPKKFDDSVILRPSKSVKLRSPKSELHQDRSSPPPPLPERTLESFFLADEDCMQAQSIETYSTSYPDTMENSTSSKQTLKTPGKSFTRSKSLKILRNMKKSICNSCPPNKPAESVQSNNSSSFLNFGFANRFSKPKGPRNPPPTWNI

[2] = molecular target: T2, Tyrosine-protein phosphatase non-receptor type 7 (Homo sapiens, UniProt P35236)
T2 sequence (P35236 whole entry): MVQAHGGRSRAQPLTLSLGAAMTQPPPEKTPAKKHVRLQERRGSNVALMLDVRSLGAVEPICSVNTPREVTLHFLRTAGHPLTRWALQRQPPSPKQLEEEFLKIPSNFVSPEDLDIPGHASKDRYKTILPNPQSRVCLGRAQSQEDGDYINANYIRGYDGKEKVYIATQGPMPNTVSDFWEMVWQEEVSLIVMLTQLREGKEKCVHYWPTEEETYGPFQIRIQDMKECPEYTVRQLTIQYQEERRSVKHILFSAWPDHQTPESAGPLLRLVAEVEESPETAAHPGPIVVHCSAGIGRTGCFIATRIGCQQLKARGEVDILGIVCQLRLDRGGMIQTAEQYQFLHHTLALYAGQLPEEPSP

[3] = molecular target: T1, Tyrosine-protein phosphatase non-receptor type 22; remark: listed apart in the source
[4] = molecular target: T3, G-protein coupled receptor 35 (Homo sapiens, UniProt Q9HC97); assay: SAR analysis of Antagonists of the GPR35 Receptor using an Image-Based Assay - Set 3. [Related pubchem assays (depositor defined):AID2013, AID2026]
Cannabinoid receptor 1 [5] = molecular target: T4, Cannabinoid receptor 1 (Homo sapiens, UniProt P21554); assay: SAR analysis of agonists of the Cannabinoid Receptor 1 using an Image-Based Assay - Set 2. [Related pubchem assays (depositor defined):AID2013, AID2026]
[6] = Luminescence Cell-Based Dose Retest to Confirm Inhibitors of Cancer Stem Cells. [Related pubchem assays (depositor defined):AID2717, AID2721]; conditions: Homo sapiens
Cannabinoid receptor 2 [7] = molecular target: T5, Cannabinoid receptor 2 (Homo sapiens, UniProt P34972); assay: SAR analysis of antagonists of the Cannabinoid Receptor 2 using an Image-Based Assay. [Related pubchem assays (depositor defined):AID2013, AID2026]
Cannabinoid receptor 2 [8] = molecular target: T5, Cannabinoid receptor 2; assay: SAR analysis of agonists of the Cannabinoid Receptor 2 using an Image-Based Assay. [Related pubchem assays (depositor defined):AID2013, AID2026]
Cannabinoid receptor 1 [9] = molecular target: T4, Cannabinoid receptor 1; assay: SAR analysis of antagonists of the Cannabinoid Receptor 1 using an Image-Based Assay - Set 2. [Related pubchem assays (depositor defined):AID2013, AID2026]
[10] = molecular target: G-protein coupled receptor 55 (Homo sapiens, UniProt Q9Y2T6); assay: GPR55 antagonists blocking LPI-driven arrestin recruitment, primary screen, imaging, U2OS, beta-arrestin-GFP, LPI agonist (AID 2013);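 further: antagonist potency measured as reduced agonist-driven arrestin aggregation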
[11] = molecular target: T3, G-protein coupled receptor 35; assay: SAR analysis of Agonists of the GPR35 Receptor using an Image-Based Assay - Set 2. [Related pubchem assays (depositor defined):AID2013, AID2026]
[12] = molecular target: T6, Alkaline phosphatase, tissue-nonspecific isozyme (Homo sapiens, UniProt P05186); assay: TNAP enzyme inhibition by screening hits, dose response, selectivity assay for mouse IAP inhibitor project, biochemical, human TNAP, uHTS hits (AID 488906)
T6 sequence (P05186 whole entry): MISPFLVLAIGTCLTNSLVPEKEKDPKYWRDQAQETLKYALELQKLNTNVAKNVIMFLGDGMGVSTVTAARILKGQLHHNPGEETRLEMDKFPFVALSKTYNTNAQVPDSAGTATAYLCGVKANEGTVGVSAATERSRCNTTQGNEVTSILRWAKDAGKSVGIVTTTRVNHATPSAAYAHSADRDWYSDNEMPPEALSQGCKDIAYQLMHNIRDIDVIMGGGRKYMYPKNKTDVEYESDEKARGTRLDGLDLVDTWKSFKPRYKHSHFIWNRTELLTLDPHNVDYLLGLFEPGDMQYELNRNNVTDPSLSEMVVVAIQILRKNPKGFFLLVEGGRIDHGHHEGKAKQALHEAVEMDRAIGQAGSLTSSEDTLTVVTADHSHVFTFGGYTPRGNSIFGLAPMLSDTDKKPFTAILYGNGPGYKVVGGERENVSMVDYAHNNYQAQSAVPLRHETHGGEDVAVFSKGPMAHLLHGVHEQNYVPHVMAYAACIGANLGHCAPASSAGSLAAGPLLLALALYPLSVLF

[13] = molecular target: Intestinal-type alkaline phosphatase (Homo sapiens, UniProt P09923); assay: activation of human intestinal alkaline phosphatase – biochemical, dose response (AID 488873)
[14] = molecular target: Intestinal-type alkaline phosphatase (Mus musculus, UniProt P24822); assay: PubChem AID 488785
Albumin = Albumin (Bos taurus, UniProt P02769); assay: Counterscreen for inhibitors of T-cell receptor (TCR)-CD3 interaction: Fluorescence-based biochemical high throughput dose response assay to identify inhibitors of T-cell receptor (TCR)-CD3 interaction using a TAMRA-labeled BSA probe.
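Wherever AC50 is given: cells exposed to compound for roughly 70 hours or longer before luminescence read.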

T3 sequence (Q9HC97 whole entry): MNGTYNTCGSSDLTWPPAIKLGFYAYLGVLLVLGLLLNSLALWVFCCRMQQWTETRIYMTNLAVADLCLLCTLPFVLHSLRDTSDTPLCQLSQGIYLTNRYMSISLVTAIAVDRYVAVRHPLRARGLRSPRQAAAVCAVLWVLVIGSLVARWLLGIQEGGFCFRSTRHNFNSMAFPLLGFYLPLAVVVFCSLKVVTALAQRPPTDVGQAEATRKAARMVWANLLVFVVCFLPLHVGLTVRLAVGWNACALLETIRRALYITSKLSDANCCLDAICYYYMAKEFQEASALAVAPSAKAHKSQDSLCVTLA
T4 sequence (P21554 whole entry): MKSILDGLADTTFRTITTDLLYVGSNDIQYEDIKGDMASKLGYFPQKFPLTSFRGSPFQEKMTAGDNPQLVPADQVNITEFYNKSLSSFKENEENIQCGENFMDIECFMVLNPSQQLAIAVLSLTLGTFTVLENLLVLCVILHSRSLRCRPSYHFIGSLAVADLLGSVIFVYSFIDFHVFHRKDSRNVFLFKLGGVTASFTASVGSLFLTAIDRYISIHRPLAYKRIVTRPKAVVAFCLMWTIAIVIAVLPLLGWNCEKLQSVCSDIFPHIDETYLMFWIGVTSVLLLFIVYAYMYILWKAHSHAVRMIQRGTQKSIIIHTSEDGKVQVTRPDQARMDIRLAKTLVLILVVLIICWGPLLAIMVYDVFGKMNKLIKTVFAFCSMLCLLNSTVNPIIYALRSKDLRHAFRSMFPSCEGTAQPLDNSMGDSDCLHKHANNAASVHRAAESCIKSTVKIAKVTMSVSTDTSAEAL
T5 sequence (P34972 whole entry): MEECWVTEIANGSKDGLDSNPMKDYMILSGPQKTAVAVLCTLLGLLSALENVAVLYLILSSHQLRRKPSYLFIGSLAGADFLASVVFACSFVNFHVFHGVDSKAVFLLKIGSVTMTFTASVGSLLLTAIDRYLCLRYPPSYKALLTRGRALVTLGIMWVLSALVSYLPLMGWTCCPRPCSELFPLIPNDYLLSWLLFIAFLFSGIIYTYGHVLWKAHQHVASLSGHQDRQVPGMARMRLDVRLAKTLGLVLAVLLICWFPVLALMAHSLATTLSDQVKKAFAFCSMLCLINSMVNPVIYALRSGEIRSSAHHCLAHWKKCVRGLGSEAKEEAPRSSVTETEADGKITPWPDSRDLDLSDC
Chain of G-protein coupled receptor 55 (Q9Y2T6 whole entry): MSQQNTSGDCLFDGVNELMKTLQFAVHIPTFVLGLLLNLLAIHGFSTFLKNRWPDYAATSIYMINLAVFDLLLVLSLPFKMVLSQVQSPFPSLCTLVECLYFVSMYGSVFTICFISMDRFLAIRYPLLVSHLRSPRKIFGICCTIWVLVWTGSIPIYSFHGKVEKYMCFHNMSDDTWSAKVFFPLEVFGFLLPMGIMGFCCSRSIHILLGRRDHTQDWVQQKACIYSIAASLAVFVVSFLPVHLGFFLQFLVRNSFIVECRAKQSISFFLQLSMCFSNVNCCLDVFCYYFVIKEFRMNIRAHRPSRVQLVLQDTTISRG
Chain of Albumin (P02769 whole entry): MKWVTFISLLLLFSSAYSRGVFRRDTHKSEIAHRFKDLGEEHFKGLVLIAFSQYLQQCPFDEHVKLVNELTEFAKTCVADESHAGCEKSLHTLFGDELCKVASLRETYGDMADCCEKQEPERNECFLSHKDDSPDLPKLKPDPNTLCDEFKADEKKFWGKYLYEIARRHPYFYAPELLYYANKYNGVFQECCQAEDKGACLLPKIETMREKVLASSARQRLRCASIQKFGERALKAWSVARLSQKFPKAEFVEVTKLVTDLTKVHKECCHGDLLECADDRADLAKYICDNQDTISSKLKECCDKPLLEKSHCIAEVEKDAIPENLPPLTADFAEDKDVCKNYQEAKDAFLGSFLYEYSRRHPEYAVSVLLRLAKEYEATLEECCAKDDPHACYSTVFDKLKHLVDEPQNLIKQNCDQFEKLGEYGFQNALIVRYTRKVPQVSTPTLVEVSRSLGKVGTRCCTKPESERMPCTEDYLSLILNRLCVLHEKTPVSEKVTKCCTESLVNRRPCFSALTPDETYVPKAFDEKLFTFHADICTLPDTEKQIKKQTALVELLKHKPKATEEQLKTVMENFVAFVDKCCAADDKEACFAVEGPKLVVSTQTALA
Chain of Intestinal-type alkaline phosphatase (Mus musculus, UniProt P24822) (P24822 whole entry): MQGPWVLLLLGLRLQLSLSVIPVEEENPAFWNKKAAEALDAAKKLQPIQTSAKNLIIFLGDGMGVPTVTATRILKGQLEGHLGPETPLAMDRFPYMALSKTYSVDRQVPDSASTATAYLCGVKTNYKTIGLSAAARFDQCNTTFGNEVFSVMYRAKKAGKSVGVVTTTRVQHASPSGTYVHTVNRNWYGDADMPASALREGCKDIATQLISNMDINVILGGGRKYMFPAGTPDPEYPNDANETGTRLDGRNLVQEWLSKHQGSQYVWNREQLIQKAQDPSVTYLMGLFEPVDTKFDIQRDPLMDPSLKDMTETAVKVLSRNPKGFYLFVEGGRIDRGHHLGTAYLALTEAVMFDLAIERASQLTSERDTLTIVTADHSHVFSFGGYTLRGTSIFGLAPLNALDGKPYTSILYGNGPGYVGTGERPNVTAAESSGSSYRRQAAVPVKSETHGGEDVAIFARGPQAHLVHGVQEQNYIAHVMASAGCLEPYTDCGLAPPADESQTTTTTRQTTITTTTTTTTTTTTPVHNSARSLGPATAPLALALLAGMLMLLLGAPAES
Chain of Intestinal-type alkaline phosphatase (Homo sapiens, UniProt P09923) (P09923 whole entry): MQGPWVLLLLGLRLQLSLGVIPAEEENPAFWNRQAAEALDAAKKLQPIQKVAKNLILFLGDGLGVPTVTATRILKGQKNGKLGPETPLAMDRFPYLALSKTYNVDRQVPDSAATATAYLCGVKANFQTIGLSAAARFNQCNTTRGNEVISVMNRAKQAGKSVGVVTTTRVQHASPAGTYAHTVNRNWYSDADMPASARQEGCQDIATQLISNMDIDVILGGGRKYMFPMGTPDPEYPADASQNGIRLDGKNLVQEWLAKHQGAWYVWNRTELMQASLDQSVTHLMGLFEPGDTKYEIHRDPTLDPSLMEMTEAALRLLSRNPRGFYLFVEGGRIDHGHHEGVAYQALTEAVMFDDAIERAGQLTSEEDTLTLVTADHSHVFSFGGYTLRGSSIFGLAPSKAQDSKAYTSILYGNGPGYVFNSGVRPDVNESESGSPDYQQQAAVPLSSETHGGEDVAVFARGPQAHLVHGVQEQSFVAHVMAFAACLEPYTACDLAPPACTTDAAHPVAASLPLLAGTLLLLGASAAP

IC50 [1]: > 79.4 µM (inactive)
IC50 [2]: > 79.4 µM (inactive)
IC50 [3]: > 79.4 µM (inactive)
Structure (SMILES): CC(C)n1c(C(=O)OCC(=O)NCc2ccc3c(c2)OCO3)cc2occc21

Structure (SMILES): Cc1cc(OCC(=O)Nc2ccc(S(=O)(=O)NC3=NCCCCC3)cc2)c(C(C)C)cc1Cl
IC50 [4]: > 32 µM (inactive)
EC50 (Cannabinoid receptor 1 [5]): > 32 µM (inactive)
AC50 [6]: 6.13 µM (active)
IC50 (Cannabinoid receptor 2 [7]): > 32 µM (inactive)
EC50 (Cannabinoid receptor 2 [8]): > 32 µM (inactive)
IC50 (Cannabinoid receptor 1 [9]): 3.16 µM (active)
IC50 [10]: 1.08 µM (active)
EC50 [11]: > 32 µM (inactive)

IC50 [12]: > 100 µM (inactive)
EC50 [13]: > 100 µM (inactive)
IC50 [14]: 11.9 µM (active)
IC50 (Albumin): > 94 µM (inactive)
Structure (SMILES): O=C(NNC(=S)NC(=O)c1cccs1)c1ccc(O)cc1
